Legend:
[1] = tested on: Human immunodeficiency virus 1; test: Antiviral activity against wild-type HIV1 in MT2 cells by MTT assay; format: functional, organism-based
MT2 = test: Cytotoxicity against MT2 cells; format: functional; details: Homo sapiens
[2] = Human immunodeficiency virus 1, MT2, read-out: EC50

Row | SMILES | EC50 [1] | CC50 (MT2) | EC50 [1, 2]
1 | CC(C)=CCOc1cc(Nc2ccccn2)ccc1C#N | Not Active | 0.29 µM | –
2 | CC(C)=CCOc1cc(Nc2nccc(N)n2)ccc1Cl | – | 0.5 µM | –
3 | CC(C)=CCOc1cc(Nc2ncccn2)ccc1C#N | Not Active | < 0.2 µM | –
4 | CCc1ccc(Nc2nccs2)cc1OCC=C(C)C | – | 31 µM | 5 µM
5 | CC(C)=CCOc1cc(Nc2nccs2)ccc1C | – | 17 µM | 3 µM
6 | CC(C)=CCOc1cc(Nc2nccc(C(F)(F)F)n2)ccc1Cl | – | 2.5 µM | 0.065 µM
7 | CCCc1ccc(Nc2nccs2)cc1OCC=C(C)C | – | 23 µM | 23 µM
8 | CC(C)=CCOc1cc(Nc2ccccn2)ccc1C | Not Active | 35 µM | –
9 | CC(C)=CCOc1cc(Nc2nccs2)ccc1C(C)C | Not Active | 31 µM | –
10 | CC(C)=CCOc1cc(Nc2ncccn2)ccc1Cl | – | 2.5 µM | –
11 | CC(C)=CCOc1cccc(Nc2ncccn2)c1 | – | > 100 µM | 30 µM
12 | CC(C)=CCOc1cc(Nc2ncccn2)ccc1C | – | 78 µM | 2.8 µM
13 | CC(C)=CCOc1cc(Nc2nccs2)ccc1Cl | – | 26 µM | 0.3 µM
14 | CC(C)=CCOc1cc(Nc2nccc(C)n2)ccc1Cl | Not Active | < 0.2 µM | –
15 | CC(C)=CCOc1cccc(Nc2nccs2)c1 | – | 23 µM | 10 µM
16 | COc1ccc(Nc2nccs2)cc1OCC=C(C)C | – | 42 µM | 3.8 µM
17 | COc1ccnc(Nc2ccc(Cl)c(OCC=C(C)C)c2)n1 | – | 9 µM | –
18 | CC(C)=CCOc1cc(Nc2nccs2)ccc1C#N | – | 0.5 µM | 0.21 µM
19 | CC(C)=CCOc1cc(Nc2ccccn2)ccc1Cl | – | 15 µM | –
20 | CSc1ccnc(Nc2ccc(Cl)c(OCC=C(C)C)c2)n1 | – | 2.8 µM | –
21 | Cc1cc(C#N)cc(C)c1Oc1nc(Nc2ccc(C#N)cc2)nc(N)c1Br [ETRAVIRINE] | – | > 1 µM | < 0.002 µM
22 | Cc1ccnc2c1NC(=O)c1cccnc1N2C1CC1 [NEVIRAPINE] | – | > 10 µM | –
23 | Cc1cn([C@H]2C=C[C@@H](CO)O2)c(=O)[nH]c1=O [STAVUDINE] | – | > 100 µM | 3 µM
24 | CC(C)=CCOc1cc(NC(=S)c2ccoc2C)ccc1Cl [UC 781] | – | > 100 µM | 0.002 µM

From ChEMBL document CHEMBL1149373, “Computer-aided design of non-nucleoside inhibitors of HIV-1 reverse transcriptase” (Bioorg Med Chem Lett, 2006)
